Test results taken from publication PMC3280530, “Marine Compounds Selectively Induce Apoptosis in Female Reproductive Cancer Cells but Not in Primary-Derived Human Reproductive Granulosa Cells” (Marine Drugs, 2012).
Like-named read-outs stand apart in the source and are kept apart here.

Tests used:
U937 lymphoma cell line = conditions: U937, 4 h exposure, tyrindoleninone in an impure extract; read-out: concentration giving 50% reduction in cell viability; cited from earlier work
[1] = system: untransformed human mononuclear cells (MNC); parameters: method as in PMID 19491143, PMID 17088067; conditions: in vitro, cited from earlier work
JAr cells [2] = assay: MTT cell viability assay; assay type: cell-based; conditions: Homo sapiens
Description: (§1) For cell assays, the D. orbita fractions were prepared fresh on the day of the experiment by dissolving in dimethyl sulfoxide (DMSO; 100%) at 100× the final concentration. These were diluted to a range of working concentrations (0.001–0.5 mg/mL) in complete cell assay medium to give a final working concentration per well of 1% DMSO. All samples were filtered through a […] (Sartorius) filter before use.
(§2) The primary-derived granulosa cells, along with the KGN, JAr and OVCAR-3 cell lines (10,000 cells per well) were plated into sterile white (opaque) 96-well plates (Interpath) and clear sterile 96-well plates (Interpath) in 0.1 mL per well of complete cell culture medium for 24 h (granulosa, KGN and OVCAR-3 cells) and 2 h (for JAr cells) to allow cell adherence. Standard curves of 0–40,000 cells per well (primary granulosa cells) and 0–80,000 cells per well (for KGN, JAr and OVCAR-3 cells) in six replicate wells were plated into clear 96-well plates, alongside the test plates. After the initial cell adherence period, spent media (media deficient of nutrients and serum) were discarded and primary-derived granulosa, KGN, JAr and OVCAR-3 cells were treated with the two D. orbita fractions at concentrations of 0.005, 0.01, 0.05, 0.1, and 0.5 mg/mL in a final volume of 0.1 mL per well in triplicate wells, for 4 and 24 h at 37 °C + 5% CO2. 1 h prior to the end of eachincubation period two positive controls were added; one for apoptosis (1 μg/mL DNase I), and the second for necrosis (2 μL per well of a cell lysis buffer; Promega). This experiment was repeated on three separate occasions (n = 3).
(§3) After 4, 24, 48 and 72 h exposure to D. orbita fractions in clear 96-well plates, media and all dead unattached cells were removed. The remaining adherent cells were rinsed with sterile 1× PBS and the MTT assay was performed. The MTT assay measures the reduction of a yellow substrate to formazan, a purple precipitate, by the mitochondrial succinate dehydrogenase enzymes. A solution of 0.5 mg/mL MTT (was added to wells in a final volume of 0.1 mL. The plates were then incubated for 1 h (JAr cells) and 18 h (KGN, OVCAR-3 and GC cells) at 37 °C and 5% CO2. At the end of the incubation period, 80 μL/well 20% SDS in 0.02 M HCl was added and plate was incubated for a further 1 h at room temperature in the dark. The absorbance was the measured at 570 nm, with reference absorbance 630 nm, using an automatic spectrophotometer using KC Junior software. This assay was repeated on three separate occasions (n = 3).

[3] = system: primary-derived human reproductive granulosa cells (HGC); assay: MTT cell viability assay; assay type: cell-based; conditions: for IC50: Homo sapiens, HGC, MTT
Description: as §1, §2, §3

[4] = system: CaCo2 colon carcinoma cells; parameters: method as in PMID 19491143; conditions: CaCo2, 4 h exposure, tyrindoleninone in an impure extract; read-out: concentration giving 50% reduction in cell viability; cited from earlier work
KGN cells [5] = assay: TUNEL staining (apoptosis); assay type: cell-based, human
Description: (§4) Primary-derived human granulosa cells and KGN cells were plated into Nunc Lab-Tek II CC2 Chamber Slides at 30,000 cells per chamber well in a final volume of 0.3 mL of DMEM/F12 + 10% FBS complete cell culture medium and incubated for 24 h at 37 °C + 5% CO2 to allow cell attachment to slides. Spent media (media deficient of nutrients and serum) and non-viable and non-adherent cellswere discarded and replaced with the D. orbita fractions at concentrations of 0.005, 0.01 and 0.05 mg/mL in a final volume of 0.3 mL of DMEM/F12 + 10% medium. A medium-only and a 1% DMSO control were also added before incubation for 4 and 24 h at 37 °C + 5% CO2. This experiment was repeated on three separate occasions (n = 3). The supernatant was removed and the cells rinsed with PBS before fixation with 4% paraformaldehyde for 25 min at room temperature. The DeadEnd™ Fluorometric TUNEL System (Promega) was performed as recommended by the manufacturer. Briefly the cells were treated with 0.2% Triton X-100 for 5 min, to permeablize the cells. The cells were rinsed in PBS before the addition of 50 μL of rTdT incubation buffer (Promega) at 37 °C for 1 h, protected from light. Cells were rinsed in 2× sodium chloride and sodium citratesolution (Promega) for 15 min at room temperature (25 °C) then rinsed again with PBS. The cells were counter-stained with 1 μg/mL propidium iodide (PI). A separate positive control slide of 1 μg/mL DNase I, and a negative control slide of buffer without rTdT, was prepared in conjunction with treatment slides. Cells were examined immediately and photographed at 200 and 400× magnification using a Fluorescence Olympus BX50 Microscope with filter Chroma 31001 at excitation 450–495 nm, Dichroic 505 and emission 515–555 nm for the green fluorescein of TUNEL and Chroma 31002 at excitation 515–550 nm, Dichroic 565 and emission 575–615 nm for the red fluorescence of the PI staining. Photomicrographs of four fields of view were taken for each treatment in each repeat of theassay and the number of TUNEL positive nuclei, stained bright green, were calculated as a fraction of the total number of PI stained nuclei, stained bright red, in each image. The average of the four fields was then calculated.

[6] = system: primary-derived human reproductive granulosa cells (HGC); assay: TUNEL staining (apoptosis); assay type: cell-based
Description: as §4

[7] = system: MCF-7 breast carcinoma cells; parameters: method as in PMID 19491143; conditions: MCF-7, 4 h exposure, tyrindoleninone in an impure extract; read-out: concentration giving 50% reduction in cell viability; cited from earlier work
KGN cells [8] = assay: MTT cell viability assay; assay type: cell-based, human; conditions: Homo sapiens
Description: as §1, §2, §3

OVCAR-3 cells [9] = assay: MTT cell viability assay; assay type: cell-based, human; conditions: Homo sapiens, OVCAR-3, MTT
Description: as §1, §2, §3

JAr cells [10] = assay: LDH membrane integrity assay (necrosis); assay type: cell-based, human; conditions: 4 h exposure
Description: as §2
(§5) After 4 and 24 h exposure to the D. orbita fractions in opaque 96-well plates, a combined membrane integrity and caspase 3/7 assay were performed on the primary-derived granulosa cells and KGN cells. The CytoTox-ONE Homogeneous Membrane Integrity Assay kit (Promega) was applied according to the manufacturer’s instructions. After the fluorescence was read at 535EX/590EM, the Caspase-Glo 3/7® assay (Promega) was applied to the primary granulosa cells and KGN cells according to the manufacturer’s instructions for1h and the plates were read on full light to capture total luminescence. The LDH-membrane integrity assay alone was performed on the JAr and OVCAR-3 cells using the CytoTox-ONE Homogeneous Membrane Integrity Assay kit (Promega). This assay was repeated on three separate occasions (n = 3).

KGN cells [11] = assay: LDH membrane integrity assay (necrosis); assay type: cell-based, human
Description: as §2, §5

OVCAR-3 cells [12] = assay: LDH membrane integrity assay (necrosis); assay type: cell-based, human; conditions: OVCAR-3, 4 h exposure
Description: as §2, §5

[13] = system: caspase-3 and -7 activity in KGN cells; assay: Caspase-Glo 3/7 assay; assay type: cell-based, human; conditions: 4 h treatment
Description: as §2, §5

[14] = system: caspase-3 and -7 activity in HGC; assay: Caspase-Glo 3/7 assay; assay type: cell-based, human; conditions: 4 h treatment
Description: as §2, §5

JAr cells [15] = assay: Crystal violet cell viability assay; assay type: cell-based; conditions: Homo sapiens
Description: as §1, §2
(§6) After 4 and 24 h exposure to D. orbita fractions in clear 96-well plates, media and all dead unattached cells were removed. The remaining adherent cells were rinsed with sterile 1× PBS and the crystal violet assay was performed. The crystal violet assay is a colourmetric assay in which only the nuclei of live cells take up the crystal violet stain (0.5%). The absorbance in the wells of the crystal violet plates were read on an automatic spectrophotometer at 570 nm, with reference absorbance 630 nm using KC Junior Software. This assay was repeated on three separate occasions (n = 3).

KGN cells [16] = assay: Crystal violet cell viability assay; assay type: cell-based; conditions: Homo sapiens
Description: as §1, §2, §6

[17] = system: primary-derived human reproductive granulosa cells (HGC); assay: Crystal violet cell viability assay; assay type: cell-based
Description: as §1, §2, §6

OVCAR-3 cells [18] = assay: Crystal violet cell viability assay; assay type: cell-based; conditions: Homo sapiens, OVCAR-3, crystal violet
Description: as §1, §2, §6

[19] = system: primary-derived human reproductive granulosa cells (HGC); assay: LDH membrane integrity assay (necrosis); assay type: cell-based
Description: as §2, §5

lymphoma cell = system: lymphoma cell; parameters: method as in PMID 17088067; conditions: 1 h exposure; read-out: concentration giving (predicted) 50% reduction in lymphoma cell viability; cited from earlier work

For `CSC1=Nc2cc(Br)ccc2C1=O` [Tyrindoleninone, tyrindoleninone], the IC50 (U937 lymphoma cell line) is listed as 391 µM, the IC50 ([1]; 1 h exposure, read-out: IC50) is listed as 195 µM and the IC50 [1] is listed as 50 mg/L. It also gave an IC50 (JAr cells [2]; 4 h) of 39 µM, an IC50 (JAr cells [2]; 24 h) of 117 µM and an IC50 (JAr cells [2]; 48 h) of 78 µM. For the same compound, the IC50 ([3]; 4 h) was 3520 µM, the IC50 ([3]; 24 h) was 1560 µM and the IC50 ([3]; 48 h) was 1560 µM. For the same compound, the IC50 ([3]; 72 h) was 1560 µM, the “IC50 values fold lower for all three reproductive cancer cell lines than for the HGC” value ([3]; after 24, 48 and 72 h treatment, KGN, JAr, OVCAR-3 vs HGC) was “approximately 10 fold” and the IC50 [4] was 391 µM. The TUNEL positive cells (KGN cells [5]; 4 h, 0.05 mg/mL) was 66%, the TUNEL labelled cells (KGN cells [5]; 24 h, 0.005 mg/mL) was 62% and the TUNEL positive cells ([6]; 4 h, 0.05 mg/mL) was 31%. The TUNEL labelled cells ([6]; 24 h, 0.005 mg/mL) was 16%, the IC50 [7] was 391 µM and the IC50 (KGN cells [8]; 4 h) was 39 µM. For the same compound, the IC50 (KGN cells [8]; 24 h) was 78 µM, the IC50 (KGN cells [8]; 48 h) was 20 µM and the IC50 (KGN cells [8]; 72 h) was < 20 µM. For the same compound, the IC50 (OVCAR-3 cells [9]; OVCAR-3, 4 h, 4 h) was 156 µM, the IC50 (OVCAR-3 cells [9]; OVCAR-3, 24 h, 24 h) was 234 µM and the IC50 (OVCAR-3 cells [9]; OVCAR-3, 48 h, 48 h) was 31 µM. For the same compound, the IC50 (OVCAR-3 cells [9]; OVCAR-3, 72 h, 72 h) was < 20 µM, the “concentration at which necrosis (LDH release) was detected” value (JAr cells [10]) was 195 µM and the “LDH released (fluorescence 535EX/590EM)” value (KGN cells [11]; 4 h, 1953 µM (0.5 mg/mL)) was 1612 ± 771. The “concentration required to cause LDH release (necrosis)” value (from here on “concentration required”) (KGN cells [11]; 4 h exposure) was 1953 µM, the “concentration required” value (KGN cells [11]; 24 h exposure) was 195 µM and the “concentration at which necrosis (LDH release) was detected” value (OVCAR-3 cells [12]) was 391 µM. For the same compound, the “concentration at which caspase-3 and -7 activity (apoptosis) significantly increased” value [13] was 20 µM, the “concentration at which caspase-3 and -7 activity (apoptosis) was noted” value [14] was 391 µM and the IC50 (JAr cells [15]; 4 h) was 234 µM. It also gave an IC50 (JAr cells [15]; 24 h) of 195 µM, an IC50 (KGN cells [16]; 4 h) of 156 µM and an IC50 (KGN cells [16]; 24 h) of 156 µM. For the same compound, the IC50 ([17]; 4 h) was > 1950 µM, the IC50 ([17]; 24 h) was > 1950 µM and the IC50 (OVCAR-3 cells [18]; 4 h) was 313 µM. For the same compound, the IC50 (OVCAR-3 cells [18]; 24 h) was 352 µM, the “LDH released (fluorescence 535EX/590EM)” value ([19]; 4 h, 1953 µM (0.5 mg/mL)) was 876 ± 1084 and the “concentration required” value ([19]; 4 h exposure) was 1953 µM. The “concentration required” value ([19]; 24 h exposure) was 1953 µM and the IC50 (lymphoma cell) was 4 µM.
